Molecular target: T1, Keap1-Nrf2 (Homo sapiens, UniProt Q14145)
T1 construct: endogenous in cells; host or cells: SH-SY5Y
Assay: Co-IP of Keap1-Nrf2 binding in SH-SY5Y cells
Type: cell-based
Conditions: 100 nM, physiological and OGD/R conditions
Protocol: Co-IP experiments were performed as described. After SH-SY5Y cells were treated, lysates were collected and incubated with antibodies with rotation for 12 h at 4 °C. Then, they were incubated with protein A/G magnetic beads (88804, Thermo Scientific, USA) as specification. Subsequently, the beads were collected and immune complexes were isolated. Finally, protein complexes were incubated for 5 min at 95 °C after dissolving in the electrophoresis sample buffer, and subjected to western blotting.

T1 sequence (Q14145 whole entry): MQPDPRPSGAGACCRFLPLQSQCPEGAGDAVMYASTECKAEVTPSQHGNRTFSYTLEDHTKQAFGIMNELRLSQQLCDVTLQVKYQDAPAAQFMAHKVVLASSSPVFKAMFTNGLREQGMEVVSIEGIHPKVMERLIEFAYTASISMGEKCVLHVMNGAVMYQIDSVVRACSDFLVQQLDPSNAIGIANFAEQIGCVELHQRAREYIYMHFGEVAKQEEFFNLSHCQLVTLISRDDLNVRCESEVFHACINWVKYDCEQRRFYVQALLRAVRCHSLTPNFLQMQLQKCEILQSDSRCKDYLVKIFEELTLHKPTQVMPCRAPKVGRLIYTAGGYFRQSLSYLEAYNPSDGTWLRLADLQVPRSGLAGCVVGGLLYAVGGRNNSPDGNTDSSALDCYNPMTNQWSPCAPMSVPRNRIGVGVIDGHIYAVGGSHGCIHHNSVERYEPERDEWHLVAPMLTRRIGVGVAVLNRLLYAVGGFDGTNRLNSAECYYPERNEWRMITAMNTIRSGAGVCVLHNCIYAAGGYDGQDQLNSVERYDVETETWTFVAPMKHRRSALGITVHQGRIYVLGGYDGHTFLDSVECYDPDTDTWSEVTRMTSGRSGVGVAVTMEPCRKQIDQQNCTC

CC1(C)CCC2(C(=O)NO)CCC3(C)C(C(=O)C=C4C5(C)C=C(C#N)C(=O)C(C)(C)C5CCC43C)C2C1 (stereo not shown) [Cpd.51]
amount of Nrf2 bound to Keap1 (Co-IP): reduced the amount of Nrf2 bound to Keap1

Source: PMC13081163, “Discovery of a novel Nrf2 activator that modulates mitochondrial function in neurons by regulating DHRS3-Nrf2 interaction after ischemic stroke” (Theranostics, 2026)
